# Test results published in patent US12257246B2, “Composition of 2,4,6-trifluoro-n-[6-(1-methyl-piperidin-4-carbonyl)-pyridin-2-yl[-benzamide” (CoLucid Pharmaceuticals, Inc., priority 2009, dated 2025).
# How the values were obtained:
# rabbit saphenous vein [1] = conditions: EC50 divided by %max KCl
# rabbit saphenous vein [2] = assay: cells; conditions: Oryctolagus cuniculus, read-out: saphenous vein contraction EC50
# migraine = conditions: in vivo; cited from earlier work
Compound,corrected vasoconstriction EC50 (rabbit saphenous vein [1]) [µM],EC50 (rabbit saphenous vein [2]) [µM],efficacy in acute treatment of migraine (migraine)
CNS(=O)(=O)Cc1ccc2[nH]cc(CCN(C)C)c2c1 [sumatriptan],0.0103,0.66,–
CN1CCC(c2c[nH]c3ccc(NC(=O)c4ccc(F)cc4)cc23)CC1 [LY334370],–,–,proved effective
